Reference: publication PMC9858543, “Design, synthesis and evaluation of 2, 6, 8-substituted Imidazopyridine derivatives as potent PI3Kα inhibitors” (Journal of Enzyme Inhibition and Medicinal Chemistry, 2023)
Read-outs that look alike come from different tables or passages of the source.

What was measured:
[1] = Parallel artificial membrane permeability assay (Egg-PAMPA); format: in vitro ADME; details: incubation 4 h; for Papp at 4 h, 10 μM: PAMPA
Description: 10.0 μM donor solution (5% DMSO) was prepared by diluting of working solution with PBS. The donor solution was added to each well of the donor plate, whose PVDF membrane was precoated with 5 µL of 1% lecithin/dodecane mixture. Duplicates were prepared.Then, PBS was added to each well of the PTFE acceptor plate. The donor plate and acceptor plate were combined and incubated for 4 h at room temperature with shaking at 300 rpm. Acceptor samples and donor samples were prepared and analysed by LC-MS/MS.

[2] = molecular target: T1, CYP2C9 (Homo sapiens, UniProt P11712); experiment: CYP450 inhibition assay in human liver microsomes; format: in vitro ADME; details: 10 μM
T1 construct: tissue Lot No. 38292; host or cells: human liver microsomes
T1 sequence (P11712 whole entry): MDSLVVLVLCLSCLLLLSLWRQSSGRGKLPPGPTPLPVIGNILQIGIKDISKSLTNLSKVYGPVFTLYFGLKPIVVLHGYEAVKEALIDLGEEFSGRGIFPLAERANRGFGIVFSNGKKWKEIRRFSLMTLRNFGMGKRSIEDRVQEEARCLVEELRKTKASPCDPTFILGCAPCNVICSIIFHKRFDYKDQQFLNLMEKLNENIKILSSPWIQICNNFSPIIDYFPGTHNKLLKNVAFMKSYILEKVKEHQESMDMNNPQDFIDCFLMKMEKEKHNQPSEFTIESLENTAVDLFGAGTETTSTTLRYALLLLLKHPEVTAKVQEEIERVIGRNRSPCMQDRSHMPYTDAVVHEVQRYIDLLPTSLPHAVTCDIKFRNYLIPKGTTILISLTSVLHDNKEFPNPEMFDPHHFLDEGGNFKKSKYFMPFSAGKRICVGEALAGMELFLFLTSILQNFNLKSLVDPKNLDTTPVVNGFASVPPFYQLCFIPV
Description: (§1) Cytochrome P450 inhibition was evaluated in human liver microsomes (0.253 mg/mL, Lot No. 38292) using five specific probe substrates (CYP1A2, 10 μM phenacetin; CYP2D6, 5 μM dextromethorphan; and CYP3A4, 2 μM midazolam; 2C9, 5 μM Diclofenac; 2C19, 30 μM S-mephenytoin) and positive control in the presence of multiple concentrations of the test compound. After pre-warm at 37 °C for 10 min, the reaction was initiated by the addition of NADPH. The mixture was incubated at 37 °C for 10 min, terminated by the addition of cold stop solution (200 ng/mL tolbutamide and 200 ng/mL labetalol in acetonitrile). The samples were centrifuged, and the supernatants were analysed by LC − MS/MS.

[3] = molecular target: T2, CYP2C19 (Homo sapiens, UniProt P33261); experiment: CYP450 inhibition assay in human liver microsomes; format: in vitro ADME; details: 10 μM
T2 construct: tissue Lot No. 38292; host or cells: human liver microsomes
T2 sequence (P33261 whole entry): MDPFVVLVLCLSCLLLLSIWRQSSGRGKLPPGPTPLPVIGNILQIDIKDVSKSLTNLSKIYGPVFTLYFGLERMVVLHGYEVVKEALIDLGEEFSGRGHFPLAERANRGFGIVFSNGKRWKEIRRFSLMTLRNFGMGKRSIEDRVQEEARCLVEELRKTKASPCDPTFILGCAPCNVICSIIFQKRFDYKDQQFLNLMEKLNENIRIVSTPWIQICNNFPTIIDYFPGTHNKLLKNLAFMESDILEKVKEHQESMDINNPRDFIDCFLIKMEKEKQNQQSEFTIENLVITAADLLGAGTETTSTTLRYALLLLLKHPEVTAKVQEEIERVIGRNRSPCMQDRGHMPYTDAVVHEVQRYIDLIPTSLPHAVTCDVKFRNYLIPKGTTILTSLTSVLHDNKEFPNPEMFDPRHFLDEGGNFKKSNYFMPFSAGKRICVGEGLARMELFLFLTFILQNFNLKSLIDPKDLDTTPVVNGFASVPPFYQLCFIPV
Description: as §1

[4] = molecular target: T3, CYP3A4 (Homo sapiens, UniProt P08684); experiment: CYP450 inhibition assay in human liver microsomes; format: in vitro ADME; details: 10 μM
T3 construct: tissue Lot No. 38292; host or cells: human liver microsomes
T3 sequence (P08684 whole entry): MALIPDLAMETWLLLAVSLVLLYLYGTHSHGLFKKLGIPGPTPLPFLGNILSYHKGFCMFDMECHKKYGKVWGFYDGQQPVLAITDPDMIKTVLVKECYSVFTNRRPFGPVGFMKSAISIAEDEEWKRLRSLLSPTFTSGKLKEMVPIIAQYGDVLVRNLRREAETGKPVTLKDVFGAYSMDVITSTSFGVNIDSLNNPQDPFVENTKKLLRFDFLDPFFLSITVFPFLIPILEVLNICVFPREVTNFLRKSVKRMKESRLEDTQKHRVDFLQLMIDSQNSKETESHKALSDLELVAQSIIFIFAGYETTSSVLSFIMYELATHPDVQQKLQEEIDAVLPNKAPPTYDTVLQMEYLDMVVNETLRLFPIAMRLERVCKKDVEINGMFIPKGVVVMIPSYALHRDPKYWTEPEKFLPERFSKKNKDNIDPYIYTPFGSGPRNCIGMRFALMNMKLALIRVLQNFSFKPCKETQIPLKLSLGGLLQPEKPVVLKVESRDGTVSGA
Description: as §1

[5] = molecular target: T4, CYP1A2 (Homo sapiens, UniProt P05177); experiment: CYP450 inhibition assay in human liver microsomes; format: in vitro ADME; details: 10 μM
T4 construct: tissue Lot No. 38292; host or cells: human liver microsomes
T4 sequence (P05177 1-516): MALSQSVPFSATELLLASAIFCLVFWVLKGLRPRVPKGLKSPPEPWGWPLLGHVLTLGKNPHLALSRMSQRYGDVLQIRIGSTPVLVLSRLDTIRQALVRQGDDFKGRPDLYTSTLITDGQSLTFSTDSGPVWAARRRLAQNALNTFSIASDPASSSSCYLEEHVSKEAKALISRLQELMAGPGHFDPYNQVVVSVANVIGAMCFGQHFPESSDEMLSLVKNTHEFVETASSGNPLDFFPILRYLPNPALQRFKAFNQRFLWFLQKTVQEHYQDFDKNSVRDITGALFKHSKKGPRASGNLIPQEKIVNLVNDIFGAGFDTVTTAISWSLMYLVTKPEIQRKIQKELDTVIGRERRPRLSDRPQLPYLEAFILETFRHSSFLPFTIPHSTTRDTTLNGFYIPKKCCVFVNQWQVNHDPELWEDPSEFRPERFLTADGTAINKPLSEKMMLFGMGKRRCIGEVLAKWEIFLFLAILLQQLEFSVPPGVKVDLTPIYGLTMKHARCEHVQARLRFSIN
Description: as §1

[6] = molecular target: T5, CYP2D6 (Homo sapiens, UniProt P10635); experiment: CYP450 inhibition assay in human liver microsomes; format: in vitro ADME; details: 10 μM
T5 construct: tissue Lot No. 38292; host or cells: human liver microsomes
T5 sequence (P10635 whole entry): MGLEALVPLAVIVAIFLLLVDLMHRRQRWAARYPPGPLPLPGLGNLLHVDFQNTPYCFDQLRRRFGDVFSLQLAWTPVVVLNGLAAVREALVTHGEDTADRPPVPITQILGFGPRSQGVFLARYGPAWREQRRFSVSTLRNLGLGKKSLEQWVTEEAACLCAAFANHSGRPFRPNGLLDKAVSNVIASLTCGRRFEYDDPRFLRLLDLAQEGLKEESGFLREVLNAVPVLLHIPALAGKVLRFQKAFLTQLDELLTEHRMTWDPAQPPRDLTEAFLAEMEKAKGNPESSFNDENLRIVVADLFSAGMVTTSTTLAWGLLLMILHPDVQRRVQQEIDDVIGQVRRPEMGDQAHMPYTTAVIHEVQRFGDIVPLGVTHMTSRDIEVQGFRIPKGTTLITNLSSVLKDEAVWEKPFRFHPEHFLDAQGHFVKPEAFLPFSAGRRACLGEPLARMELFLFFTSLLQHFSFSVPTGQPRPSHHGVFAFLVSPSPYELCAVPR
Description: as §1

[7] = test system: T47D cells; experiment: Apoptosis analysis, annexin V/7-AAD flow cytometry; format: cell-based, human; details: 50 μM, 24 h
Description: Considering compound 35 was most sensitive in T47D cells, we decided to get some mechanistic insight into the mode of action in T47D cell line. As such, the annexin V/7-AAD staining and cell cycle phase distribution have been carried out. […] Furthermore, T47D cells were also treated with different concentrations of 35, and the percentage of apoptotic cells was measured.
For cell cycle analysis, T47D cell (1 × 10^6) were seeded in 6-well plates overnight and treated with different concentrations of compound 35 and DMSO control on the next day. After 24 h, the cells were collected by EDTA-free trypsinization, centrifuged at 1500 rpm for 5 min, and fixed in 75% ethanol at −20 °C for 1 h. The cells were then centrifuged at 2000 rpm for 5 min, resuspended in 500 µL PI/Rnase Staining Buffer, incubated for 30 min at room temperature, and analysed using flow cytometry. The data were analysed using Modfit software. For cell apoptosis analysis, T47D cell were seeded in 6 well-plates and treated with DMSO or compound 35 for 24 h. The treated cells were collected and washed with cold PBS for three times, resuspended in 185 µL binding buffer containing 5 μL Annexin V-FITC Apoptosis Detection Kit and 10 μL 7-AAD Viability Staining Solution for 15 min at room temperature in the dark. Apoptotic cells were analysed by flow cytometer.

[8] = Liver microsomal stability assay, RLM; format: in vitro ADME, rat
Description: The metabolic stability of compound 35 was determined in human or SD rat liver microsomes, with and without the NADPH regenerating system. Briefly, compound 35 was incubated with microsomes (human microsome, CORNING, lot No. 38296; rat microsome, Xenotech, Lot No. 2110178) (0.5 mg protein/mL) at 1 μM at 37 °C in potassium phosphate buffer (100 mM at pH 7.4 with 10 mM MgCl2). The reactions were initiated by adding prewarmed cofactors (1 mmol NADPH). After incubation for different times (0, 5, 10, 20, 30, and 60 min) at 37 °C, cold acetonitrile containing 200 ng/mL tolbutamide and 200 ng/mL labetalol as internal standards was added to precipitate the protein. Then, the samples were centrifuged, and the supernatants were transferred into HPLC water, mixed by plate shaker for 10 min prior to LC − MS/MS analysis.

Question: Which “Mean Pe” value ([1]; 10 μM) does the source give for COc1ncc(-c2cc(C)cn3cc(C(=O)N4CCCC4)nc23)cc1NS(=O)(=O)c1ccc(F)cc1 [Compound 35, 4-Fluoro-N-(2-methoxy-5–(6-methyl-2-(pyrrolidine-1-carbonyl)Imidazo[1,2-a]pyridin-8-yl)pyridin-3-yl)benzenesulfonamide] here?
Answer: higher than 10 nm/s

Question: And the Papp at 4 h, 10 μM ([1]; read-out: Mean Pe)?
Answer: 1.54 ×10⁻⁶ cm/s

Question: What about the Papp at 4 h, 10 μM ([1]; read-out: Permeability) of the same molecule?
Answer: > 1 ×10⁻⁶ cm/s

Question: And the CYP2C9 % inhibition [2]?
Answer: 30.6%

Question: And the CYP2C19 % inhibition [3]?
Answer: 25.9%

Question: And the CYP3A4 % inhibition [4]?
Answer: 42.6%

Question: And the CYP1A2 % inhibition [5]?
Answer: 9.8%

Question: What about the CYP2D6 % inhibition [6] of the same molecule?
Answer: 13.5%

Question: What about the “Q2 cells (late apoptosis), annexin V/7-AAD” value [7] of the same molecule?
Answer: 21.8%

Question: And the “Q3 cells (early apoptosis), annexin V/7-AAD” value [7]?
Answer: 1.51%

Question: And the “Remaining (T = 60min)” value ([8]; 1 μM, 60 min)?
Answer: 31.5%

Question: What about the microsomal CLint at 1 μM ([8]; SD, rat, rat liver microsomes, pH 7.4, 0.5 mg protein/mL, read-out: Metabolic stability CL int) of the same molecule?
Answer: 43.4 µL/min/mg

Question: And the half-life at 1 μM ([8]; SD, rat, rat liver microsomes, pH 7.4, 0.5 mg protein/mL, read-out: Metabolic stability T1/2)?
Answer: 31.9 min
